{"source": "ChEMBL document CHEMBL1201862", "about": "“PubChem BioAssay data set” (2004)", "key": {"[1]": {"target": "Steroidogenic factor 1 (Homo sapiens, UniProt Q13285)", "sequence (Q13285 whole entry)": "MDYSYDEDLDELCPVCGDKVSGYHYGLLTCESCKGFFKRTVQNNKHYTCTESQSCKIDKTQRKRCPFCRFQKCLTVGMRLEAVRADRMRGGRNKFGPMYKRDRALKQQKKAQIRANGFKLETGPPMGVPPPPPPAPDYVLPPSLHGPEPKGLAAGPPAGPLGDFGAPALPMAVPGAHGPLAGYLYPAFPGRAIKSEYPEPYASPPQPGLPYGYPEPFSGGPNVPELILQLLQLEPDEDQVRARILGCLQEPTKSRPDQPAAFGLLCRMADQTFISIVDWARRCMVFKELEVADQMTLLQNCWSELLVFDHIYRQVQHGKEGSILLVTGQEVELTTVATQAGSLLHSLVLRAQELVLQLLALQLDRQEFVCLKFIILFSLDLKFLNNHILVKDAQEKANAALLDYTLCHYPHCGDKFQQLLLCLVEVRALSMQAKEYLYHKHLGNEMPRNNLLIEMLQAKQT", "assay": "Counterscreen for inverse agonists of the liver receptor homolog-1 (LRH-1; NR5A2): Luminescence-based cell-based high throughput dose response assay to identify inverse agonists of the Steroidogenic Factor 1 Nuclear Receptor (SF1; NR5A1).", "format": "functional"}, "[2]": {"assay": "StAR promoter reporter inhibition counter-screen, dose response, counter-screen for LRH-1 inverse agonist project, cell-based, luminescence, luciferase reporter (AID 651969)", "format": "functional"}, "[3]": {"target": "Nuclear receptor subfamily 5 group A member 2 (Homo sapiens, UniProt O00482)", "sequence (O00482 whole entry)": "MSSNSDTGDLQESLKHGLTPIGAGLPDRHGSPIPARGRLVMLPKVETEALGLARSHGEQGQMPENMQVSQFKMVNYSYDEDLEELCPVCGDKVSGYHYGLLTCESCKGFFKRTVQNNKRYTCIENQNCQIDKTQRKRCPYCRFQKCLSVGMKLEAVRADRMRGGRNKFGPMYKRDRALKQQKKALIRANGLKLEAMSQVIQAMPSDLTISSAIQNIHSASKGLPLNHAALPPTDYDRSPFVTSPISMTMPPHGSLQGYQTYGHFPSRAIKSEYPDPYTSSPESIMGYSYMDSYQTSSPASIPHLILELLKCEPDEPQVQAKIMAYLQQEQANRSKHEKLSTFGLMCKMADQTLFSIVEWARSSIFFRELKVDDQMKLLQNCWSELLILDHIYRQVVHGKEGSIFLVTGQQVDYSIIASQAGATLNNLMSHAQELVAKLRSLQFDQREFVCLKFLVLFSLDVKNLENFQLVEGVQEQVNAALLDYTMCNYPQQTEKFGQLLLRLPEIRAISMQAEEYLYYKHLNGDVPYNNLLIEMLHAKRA", "format": "functional, cell-based"}, "[4]": {"assay": "cytotoxicity in HEK-293T cells, dose response, cytotoxicity control for TCR NF-kB inhibitor project, luminescence, T-cell screen hits (AID 489026);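 also: cells exposed to compound about 14 hours before the viability readout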", "format": "functional, cell-based"}, "[5]": {"system": "INS1", "assay": "beta cell apoptosis inhibitors, cytokine rescue, dose response, luminescence, retest (AID 449756);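 also: cell death triggered by IL-1 beta plus TNF-alpha plus IFN-gamma mixture; protective hits raise ATP signal compared with cytokine alone wells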", "format": "functional, cell-based", "conditions": "Rattus norvegicus"}, "[6]": {"target": "Protein Wnt-3a (Mus musculus, UniProt P27467)", "sequence (P27467 whole entry)": "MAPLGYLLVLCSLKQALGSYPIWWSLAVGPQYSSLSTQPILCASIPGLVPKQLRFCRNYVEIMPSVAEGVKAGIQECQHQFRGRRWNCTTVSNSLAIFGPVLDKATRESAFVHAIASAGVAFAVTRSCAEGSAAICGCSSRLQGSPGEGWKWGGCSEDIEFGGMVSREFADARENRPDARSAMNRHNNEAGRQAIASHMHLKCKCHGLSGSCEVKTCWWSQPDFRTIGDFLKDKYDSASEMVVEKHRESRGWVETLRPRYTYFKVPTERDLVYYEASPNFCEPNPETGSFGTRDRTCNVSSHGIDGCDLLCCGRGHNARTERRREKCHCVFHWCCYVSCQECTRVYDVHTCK", "assay": "Wnt3a-driven reporter signaling inhibition, dose response, selectivity assay for Gli-SUFU antagonist project, Wnt-LIGHT cells, luminescence (AID 651570);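 also: Wnt-LIGHT reporter cells stimulated with conditioned medium from Wnt3a-producing cells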", "format": "functional", "conditions": "read-out: IC50_Mean"}, "[7]": {"assay": "THP-1 cell cytotoxicity, dose response, cytotoxicity control for non-replicating M. tuberculosis project (AID 489025)", "format": "functional"}, "[8]": {"assay": "HepG2 cell cytotoxicity, dose response, cytotoxicity control for non-replicating M. tuberculosis project (AID 489018)", "format": "functional", "conditions": "Mycobacterium tuberculosis"}, "[9]": {"assay": "Vero E6 cell cytotoxicity, dose response, cytotoxicity control for non-replicating M. tuberculosis project, secondary assay (AID 492998)", "format": "functional, VeroE6", "conditions": "Vero C1008"}, "[10]": {"assay": "cells", "format": "functional"}, "[11]": {"assay": "AlphaScreen signal interference compounds, dose response, artefact control for ARNT-TACC3 interaction inhibitor project, biochemical, luminescence, cherry-pick (AID 651705);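 also: AlphaScreen bead proximity signal that flags compounds interfering with the detection technology; potency reflects signal decrease which marks the compound as an assay artifact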", "format": "functional"}, "[12]": {"system": "H9c2", "assay": "cells", "format": "functional, cell-based", "conditions": "Rattus norvegicus, H9c2, Myocardium"}, "[13]": {"target": "Nonstructural protein 1 (Influenza A virus, UniProt Q194T2)", "sequence (Q194T2 whole entry)": "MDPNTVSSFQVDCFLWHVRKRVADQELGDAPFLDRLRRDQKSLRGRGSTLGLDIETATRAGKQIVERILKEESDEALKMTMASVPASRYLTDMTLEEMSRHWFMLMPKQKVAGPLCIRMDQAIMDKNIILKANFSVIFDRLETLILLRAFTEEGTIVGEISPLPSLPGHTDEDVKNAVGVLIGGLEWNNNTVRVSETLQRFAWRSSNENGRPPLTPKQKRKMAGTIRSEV", "format": "functional, Influenza A virus (A/California/07/2009(H1N1))"}, "[14]": {"target": "T1, High affinity choline transporter 1 (Homo sapiens, UniProt Q9GZV3)", "T1 sequence (Q9GZV3 whole entry)": "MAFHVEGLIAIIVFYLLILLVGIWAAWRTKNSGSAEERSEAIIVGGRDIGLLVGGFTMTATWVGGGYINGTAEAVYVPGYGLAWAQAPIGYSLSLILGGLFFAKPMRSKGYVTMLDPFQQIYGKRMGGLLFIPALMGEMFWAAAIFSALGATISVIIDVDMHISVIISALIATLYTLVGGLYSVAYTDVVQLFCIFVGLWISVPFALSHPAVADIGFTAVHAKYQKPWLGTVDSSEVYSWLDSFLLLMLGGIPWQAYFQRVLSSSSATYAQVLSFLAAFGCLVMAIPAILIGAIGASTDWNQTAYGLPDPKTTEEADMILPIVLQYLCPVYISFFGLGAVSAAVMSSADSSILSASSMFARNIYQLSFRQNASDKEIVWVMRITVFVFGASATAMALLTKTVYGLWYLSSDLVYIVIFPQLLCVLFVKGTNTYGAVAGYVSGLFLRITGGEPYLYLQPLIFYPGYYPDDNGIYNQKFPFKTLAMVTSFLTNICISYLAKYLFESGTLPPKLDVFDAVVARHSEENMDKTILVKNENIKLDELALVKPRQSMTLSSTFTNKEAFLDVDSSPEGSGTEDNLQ", "assay": "CHT inhibitors, dose response, cell-based, 5-point CRC, membrane potential dye (AID 504840)", "format": "functional"}, "[15]": {"target": "T1, High affinity choline transporter 1", "assay": "CHT inhibitors, dose response, cell-based, 10-point CRC, membrane potential dye (AID 588401);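 also: membrane potential dye fluorescence of choline-evoked depolarization via CHT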", "format": "functional"}, "[16]": {"target": "T2, Polyadenylate-binding protein 1 (Homo sapiens, UniProt P11940)", "T2 sequence (P11940 whole entry)": "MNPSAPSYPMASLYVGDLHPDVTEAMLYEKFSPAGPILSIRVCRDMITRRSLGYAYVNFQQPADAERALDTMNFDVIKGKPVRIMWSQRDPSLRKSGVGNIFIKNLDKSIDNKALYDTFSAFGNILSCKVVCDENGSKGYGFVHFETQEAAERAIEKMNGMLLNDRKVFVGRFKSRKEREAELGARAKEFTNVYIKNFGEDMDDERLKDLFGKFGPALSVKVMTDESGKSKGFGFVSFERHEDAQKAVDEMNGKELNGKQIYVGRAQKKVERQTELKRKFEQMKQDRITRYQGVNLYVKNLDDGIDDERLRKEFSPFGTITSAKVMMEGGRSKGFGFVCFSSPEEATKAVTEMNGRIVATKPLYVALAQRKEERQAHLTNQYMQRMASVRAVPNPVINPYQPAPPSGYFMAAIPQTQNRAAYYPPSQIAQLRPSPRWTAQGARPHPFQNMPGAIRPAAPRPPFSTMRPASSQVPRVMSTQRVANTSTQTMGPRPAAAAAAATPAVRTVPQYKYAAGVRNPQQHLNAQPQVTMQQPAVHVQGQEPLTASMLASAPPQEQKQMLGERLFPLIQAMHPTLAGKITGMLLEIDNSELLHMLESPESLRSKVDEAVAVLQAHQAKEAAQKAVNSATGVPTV", "assay": "PABP1 MLLE–PAM2 interaction inhibitors, dose response, miRNA deadenylation inhibitor project, biochemical, fluorescence polarization, Cy5-PAM2 peptide, secondary (AID 602260)", "format": "functional", "conditions": "read-out: IC50_Mean"}, "[17]": {"target": "Melanocortin receptor 4 (Homo sapiens, UniProt P32245)", "sequence (P32245 whole entry)": "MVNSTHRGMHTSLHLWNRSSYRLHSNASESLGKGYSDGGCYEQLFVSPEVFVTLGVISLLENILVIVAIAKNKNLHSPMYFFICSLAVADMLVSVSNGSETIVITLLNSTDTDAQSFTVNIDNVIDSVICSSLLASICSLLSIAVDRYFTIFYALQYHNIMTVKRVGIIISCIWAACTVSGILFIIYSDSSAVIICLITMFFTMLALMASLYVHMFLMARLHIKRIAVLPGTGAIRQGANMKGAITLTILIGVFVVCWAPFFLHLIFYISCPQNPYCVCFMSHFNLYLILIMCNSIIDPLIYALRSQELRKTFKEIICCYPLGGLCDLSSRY", "format": "functional, cell-based"}, "[18]": {"target": "T2, Polyadenylate-binding protein 1", "assay": "PABP1 MLLE–PAM2 binding inhibitor potency, dose response, biochemical, fluorescence polarization, FITC-PAM2 peptide (AID 602259)", "format": "functional", "conditions": "read-out: IC50_Mean"}, "[19]": {"target": "Dual specificity tyrosine-phosphorylation-regulated kinase 1A (Rattus norvegicus, UniProt Q63470)", "format": "biochemical, Homo sapiens"}, "[20]": {"target": "T3, Aminopeptidase N (Plasmodium falciparum FcB1/Columbia, UniProt O96935)", "T3 sequence (O96935 whole entry)": "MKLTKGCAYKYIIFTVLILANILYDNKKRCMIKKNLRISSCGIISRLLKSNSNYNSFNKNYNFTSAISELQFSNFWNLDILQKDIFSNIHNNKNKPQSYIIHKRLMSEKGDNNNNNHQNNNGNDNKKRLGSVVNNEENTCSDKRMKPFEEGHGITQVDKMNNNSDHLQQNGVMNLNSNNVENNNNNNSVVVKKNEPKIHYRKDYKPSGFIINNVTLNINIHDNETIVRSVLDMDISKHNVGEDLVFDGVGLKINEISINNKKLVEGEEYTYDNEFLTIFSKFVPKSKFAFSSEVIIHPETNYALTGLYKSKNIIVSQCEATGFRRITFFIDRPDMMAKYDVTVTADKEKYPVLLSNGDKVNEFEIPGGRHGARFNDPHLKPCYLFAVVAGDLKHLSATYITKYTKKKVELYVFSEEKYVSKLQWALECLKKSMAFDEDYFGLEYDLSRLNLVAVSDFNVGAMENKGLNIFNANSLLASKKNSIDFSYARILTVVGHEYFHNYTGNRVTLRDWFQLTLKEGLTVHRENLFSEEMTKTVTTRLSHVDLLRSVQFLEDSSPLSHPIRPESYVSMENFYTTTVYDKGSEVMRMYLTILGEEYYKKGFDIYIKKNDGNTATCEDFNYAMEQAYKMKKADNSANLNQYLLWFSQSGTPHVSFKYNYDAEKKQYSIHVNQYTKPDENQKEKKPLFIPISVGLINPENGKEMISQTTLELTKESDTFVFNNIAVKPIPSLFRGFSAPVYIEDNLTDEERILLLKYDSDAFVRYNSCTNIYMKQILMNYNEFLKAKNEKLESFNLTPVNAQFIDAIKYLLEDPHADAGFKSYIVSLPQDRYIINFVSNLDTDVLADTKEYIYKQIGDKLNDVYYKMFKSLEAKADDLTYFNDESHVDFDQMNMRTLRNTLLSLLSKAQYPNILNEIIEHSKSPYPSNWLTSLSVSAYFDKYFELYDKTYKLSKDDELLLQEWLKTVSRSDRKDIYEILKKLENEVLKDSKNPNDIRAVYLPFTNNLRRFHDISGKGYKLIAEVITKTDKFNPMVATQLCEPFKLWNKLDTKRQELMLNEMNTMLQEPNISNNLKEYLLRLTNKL", "assay": "P. falciparum M1AAP inhibitors, biochemical, fluorogenic H-Leu-NHMec substrate, 1536-well (AID 1445)", "parameters": "species or system Plasmodium falciparum 3D7, 3D7"}, "[21]": {"assay": "NIH-3T3 fibroblast cytotoxicity, dose response, cytotoxicity control, cell-based, fluorescence, Alamar Blue, secondary assay (AID 2327);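 also: NIH-3T3 mouse fibroblasts cultured with fluconazole at 8 µg/mL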", "format": "functional"}, "[22]": {"assay": "C. albicans growth with fluconazole, confirmation, fluorescence, retest (AID 2467)", "format": "functional, cell-based"}, "[23]": {"target": "T4, Short transient receptor potential channel 4 (Mus musculus, UniProt Q9QUQ5)", "T4 sequence (Q9QUQ5 whole entry)": "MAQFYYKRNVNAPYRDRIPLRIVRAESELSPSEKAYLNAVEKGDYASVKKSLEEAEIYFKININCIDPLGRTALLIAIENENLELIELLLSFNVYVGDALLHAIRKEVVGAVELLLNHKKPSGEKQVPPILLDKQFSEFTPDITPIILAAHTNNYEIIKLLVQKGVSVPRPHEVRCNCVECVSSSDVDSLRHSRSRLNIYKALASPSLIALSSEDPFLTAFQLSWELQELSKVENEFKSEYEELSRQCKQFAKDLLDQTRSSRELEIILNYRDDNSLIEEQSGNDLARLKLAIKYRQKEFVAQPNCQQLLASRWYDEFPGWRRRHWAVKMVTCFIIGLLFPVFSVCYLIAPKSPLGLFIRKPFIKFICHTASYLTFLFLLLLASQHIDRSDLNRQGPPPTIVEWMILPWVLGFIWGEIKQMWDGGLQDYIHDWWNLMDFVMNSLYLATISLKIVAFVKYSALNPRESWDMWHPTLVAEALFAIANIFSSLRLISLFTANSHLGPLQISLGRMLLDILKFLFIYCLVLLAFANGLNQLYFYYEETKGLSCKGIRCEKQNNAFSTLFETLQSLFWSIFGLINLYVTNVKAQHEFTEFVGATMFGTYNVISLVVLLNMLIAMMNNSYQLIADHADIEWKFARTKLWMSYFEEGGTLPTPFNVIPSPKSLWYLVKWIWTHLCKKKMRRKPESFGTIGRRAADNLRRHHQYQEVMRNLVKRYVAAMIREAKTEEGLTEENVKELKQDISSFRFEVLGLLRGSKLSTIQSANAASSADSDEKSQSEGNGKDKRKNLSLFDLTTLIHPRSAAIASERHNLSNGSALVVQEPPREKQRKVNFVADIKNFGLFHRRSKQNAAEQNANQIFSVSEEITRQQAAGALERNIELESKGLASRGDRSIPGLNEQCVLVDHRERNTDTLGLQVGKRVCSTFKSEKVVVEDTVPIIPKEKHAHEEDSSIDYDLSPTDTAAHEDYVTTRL", "assay": "mouse TRPC4 channel inhibitors, dose response, cell-based, HEK293 TRPC4/mu-opioid, Fluo-4 calcium (AID 434942)", "format": "functional"}}, "note": "Active and inactive are the calls of the source."}
{"smiles": "COc1cc(C(=O)Nc2ccccc2C2COC(=O)C2=N)cc(OC)c1OC", "note": "(stereo not drawn)", "values": [{"measurement": "IC50", "setting": "[1]", "result": "4.53 µM (active)"}, {"measurement": "IC50", "setting": "[2]", "result": "35.9 µM (inactive)"}, {"measurement": "IC50", "setting": "[3]", "result": "8.25 µM (active)"}]}
{"smiles": "CC(=O)c1c(C)[nH]c(C(=O)OCC(=O)Nc2ccc(C)cc2[N+](=O)[O-])c1C", "values": [{"measurement": "IC50", "setting": "[4]", "result": "> 80 µM (inactive)"}, {"measurement": "AC50", "setting": "[5]", "result": "1.12 µM (active)"}, {"measurement": "IC50", "setting": "[6]", "result": "0.245 µM (active)"}]}
{"smiles": "O=C(CCS(=O)(=O)c1ccccc1)Nc1nc(-c2ccccn2)cs1", "values": [{"measurement": "CC50", "setting": "[7]", "result": "22.5 µM (active)"}, {"measurement": "CC50", "setting": "[8]", "result": "> 20 µM (active)"}, {"measurement": "CC50", "setting": "[9]", "result": "10.6 µM (active)"}, {"measurement": "IC50", "setting": "[10]", "result": "4.53 µM (active)"}, {"measurement": "AC50", "setting": "[11]", "result": "118 µM (active)"}, {"measurement": "IC50", "setting": "[12]", "result": "35.8 µM (inactive)"}, {"measurement": "IC50", "setting": "[13]", "result": "15.7 µM (active)"}]}
{"smiles": "Cc1ccc[n+](CC(=O)c2ccc(Cl)cc2)c1", "values": [{"measurement": "IC50", "setting": "[14]", "result": "1.82 µM (active)"}, {"measurement": "IC50", "setting": "[15]", "result": "0.946 µM (active)"}]}
{"smiles": "CC(=O)Nc1cc(-c2ccccc2N(C)C)cn2c(-c3ccc(F)c(Cl)c3)cnc12", "values": [{"measurement": "IC50", "setting": "[16]", "result": "> 66 µM (inactive)"}, {"measurement": "EC50", "setting": "[17]", "result": "> 89.2 µM (inactive)"}, {"measurement": "IC50", "setting": "[18]", "result": "> 66 µM (inactive)"}]}
{"smiles": "COc1ccc(-c2cc(NC=O)c3ncc(-c4ccccc4)n3c2)cc1OC", "values": [{"measurement": "EC50", "setting": "[17]", "result": "> 89.2 µM (inactive)"}, {"measurement": "IC50", "setting": "[12]", "result": "> 79 µM (inactive)"}]}
{"smiles": "N#C/C(=N\\Nc1cccc([N+](=O)[O-])c1)C(=O)c1ccc(Br)cc1", "values": [{"measurement": "AC50", "setting": "[19]", "result": "2.91 µM (active)"}, {"measurement": "IC50", "setting": "[20]", "result": "40.5 µM (active)"}, {"measurement": "IC50", "setting": "[14]", "result": "9.02 µM (active)"}, {"measurement": "AC50", "setting": "[5]", "result": "6.82 µM (active)"}, {"measurement": "EC50", "setting": "[21]", "result": "56.9 µM (active)"}, {"measurement": "EC50", "setting": "[22]", "result": "4.48 µM (active)"}, {"measurement": "EC50", "setting": "[23]", "result": "3.35 µM (active)"}, {"measurement": "IC50", "setting": "[15]", "result": "3.36 µM (active)"}]}
